Assay results: publication PMC8041284, “Tunable Methacrylamides for Covalent Ligand Directed Release Chemistry” (Journal of the American Chemical Society, 2021)

Target: BTK (Homo sapiens, UniProt Q06187)
Experiment: biochemical
Conditions: read-out: BTK inhibition (%), 0.75 uM BTK, […] probe 3l, 15 min preincubation

Chain of BTK (Q06187 402-655 limits assumed): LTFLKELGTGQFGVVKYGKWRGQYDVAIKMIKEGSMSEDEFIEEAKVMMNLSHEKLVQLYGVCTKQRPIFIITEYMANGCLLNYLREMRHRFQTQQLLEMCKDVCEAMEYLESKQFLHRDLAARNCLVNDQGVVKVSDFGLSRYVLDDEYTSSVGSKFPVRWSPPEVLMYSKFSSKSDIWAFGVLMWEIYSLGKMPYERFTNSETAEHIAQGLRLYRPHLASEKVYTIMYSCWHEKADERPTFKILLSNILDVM

Row | SMILES | inhibition at 10 µM [%]
1 | CCn1cc(C(=O)O)c(=O)c2cc(F)c(N3CCNC(C)C3)c(F)c21 (stereo not shown) [PCM-0065465] | -2.6
2 | CCOC(=O)c1cc(O)c(O)c(O)c1 [PCM-0216263] | 9.3
3 | C#Cc1cccc(Nc2ncnc3cc4c(cc23)OCCOCCOCCO4)c1 [PCM-0095422] | -16.6
4 | O=C(NCCS(=O)(=O)c1ccc(C(F)(F)F)cn1)c1ccc(Cl)cc1 [PCM-0007384] | 16.6
5 | Cc1ccc(-c2csc(NC(=O)c3ccccc3)n2)c(C)c1 [PCM-0215320] | 60.2
6 | NNc1nnc(NN)c2ccccc12 [PCM-0215993] | 9.3
7 | COc1ccc(-c2ccc3ncc4c(c3c2)n(-c2ccc(N3CCNCC3)c(C(F)(F)F)c2)c(=O)n4C)cn1 [PCM-0095488] | 0.7
8 | CCc1ccc(Cc2ccc3c(c2)[C@]2(OC3)O[C@H](CO)[C@@H](O)[C@H](O)[C@H]2O)cc1 [PCM-0215855] | 5.4
9 | Cc1nc2ccc(NC(=O)Nc3ccnc4cccnc34)cc2o1 [PCM-0215431] | -18.5
10 | CCN(CC)CCCC(C)Nc1c2ccc(Cl)cc2nc2ccc(OC)cc12 (stereo not shown) [PCM-0065371] | -8.5
11 | CNC(=O)c1cc(Oc2ccc(NC(=O)Nc3cc(C(C)(C)C)nn3-c3ccc4ncccc4c3)c(F)c2)ccn1 [PCM-0095514] | 98.6
12 | c1cn2cc(-c3ccc4cn[nH]c4c3)nc(Nc3ccc(N4CCOCC4)cc3)c2n1 [PCM-0095758] | 33.8
13 | CC1(C)Cc2c(sc(NC(=O)c3ccn[nH]3)c2C(N)=O)C(C)(C)O1 [PCM-0216042] | 1.5
14 | C=CCNC(N)=S [PCM-0090807] | -18.7
15 | Cn1c(=O)c(Oc2ccc(F)cc2F)cc2cnc(NC(CCO)CCO)nc21 [PCM-0215718] | -30.3
16 | Nc1cccc2c1CN(C1CCC(=O)NC1=O)C2=O (stereo not shown) [PCM-0094938] | 14.5
17 | Cn1cnc2c(F)c(Nc3ccc(Br)cc3Cl)c(C(=O)NOCCO)cc21 [PCM-0094893] | -6.9
18 | CNC(=O)c1ccccc1Nc1cc(Nc2ccc(N3CCOCC3)cc2OC)ncc1C(F)(F)F [PCM-0215412] | 63.4
19 | O=C(O)CCc1ccc(NCc2cccc(Oc3ccccc3)c2)cc1 [PCM-0065313] | -41.4
20 | C[C@H](CC[C@@H](O[C@@H]1O[C@H](CO[C@@H]2O[C@H](CO)[C@@H](O)[C@H](O)[C@H]2O)[C@@H](O)[C@H](O)[C@H]1O[C@@H]1O[C@H](CO)[C@@H](O)[C@H](O)[C@H]1O)C(C)(C)O)[C@H]1CC[C@@]2(C)[C@@H]3CC=C4[C@@H](CC[C@H](O[C@@H]5O[C@H](CO[C@@H]6O[C@H](CO)[C@@H](O)[C@H](O)[C@H]6O)[C@@H](O)[C@H](O)[C@H]5O)C4(C)C)[C@]3(C)[C@H](O)C[C@]12C [PCM-0214952] | -2.3
21 | CC1=C(/C=C/C(C)=C/C=C/C(C)=C/C=C/C=C(C)/C=C/C=C(C)/C=C/C2=C(C)CCCC2(C)C)C(C)(C)CCC1 [PCM-0090171] | 24.7
22 | CO[C@H]1/C=C\C=C(/C)C(=O)NC2=CC(=O)C(NCCN(C)C)=C(C[C@@H](C)C[C@H](OC)[C@H](O)[C@@H](C)/C=C(\C)[C@@H]1OC(N)=O)C2=O [PCM-0094961] | 28.3
23 | N#Cc1c(Oc2ccc(F)c(NC(=O)Cc3cccc(C(F)(F)F)c3)c2)ccc2nc(NC(=O)C3CC3)sc12 [PCM-0215264] | 37.9
24 | CCN(CC)CC(=O)Oc1ccc(NC(C)=O)cc1 [PCM-0215103] | -0.8
25 | CC(=O)c1cc([N+](=O)[O-])c(Sc2ccc(F)cc2F)s1 [PCM-0215212] | 5.4
26 | C=C1/C(=C\C=C2/CCC[C@]3(C)[C@@H]([C@H](C)CCCC(C)C)CC[C@@H]23)C[C@@H](O)C[C@@H]1O [PCM-0086012] | -3.1
27 | COc1cc([C@@H]2c3cc4c(cc3[C@@H](O[C@@H]3O[C@@H]5CO[C@@H](C)O[C@H]5[C@H](O)[C@H]3O)[C@H]3COC(=O)[C@H]23)OCO4)cc(OC)c1O [PCM-0086140] | -2.8
28 | O=C(c1cc(Cc2n[nH]c(=O)c3ccccc23)ccc1F)N1CCN(C(=O)C2CC2)CC1 [PCM-0094988] | 9.7
